Among the data in ChEMBL document CHEMBL5608163, “Structure modification of anoplin for fighting resistant bacteria” (Eur J Med Chem, 2024) are MIC and HC50 values, retold here.

In data set [1] the test system is Staphylococcus aureus. Kind of data set: Antibacterial activity against Staphylococcus aureus ATCC 25923 assessed as reduction in bacterial growth measured after 18 to 24 hrs by CLSI protocol-based Mueller-Hinton broth dilution method. In kind it is functional. The settings on record: time 18-24 hrs.
In a further data set the test system is Bacillus subtilis. The data set is described as follows: Antibacterial activity against Bacillus subtilis ATCC 23857 assessed as reduction in bacterial growth measured after 18 to 24 hrs by CLSI protocol-based Mueller-Hinton broth dilution method. In kind it is functional. Particulars: time 18-24 hrs. In general terms: Dilution methods test growth across graded concentrations, often in twofold steps.

The test system of data set [2] is Escherichia coli. Kind of data set: Antibacterial activity against multi-drug resistant Escherichia coli clinical isolate 850 assessed as reduction in bacterial growth measured after 18 to 24 hrs by CLSI protocol-based Mueller-Hinton broth dilution method. The settings on record: time 18-24 hrs. It is filed as functional.
The next data set concerns Pseudomonas aeruginosa. Kind of data set: Antibacterial activity against multi-drug resistant Pseudomonas aeruginosa clinical isolate 119 assessed as reduction in bacterial growth measured after 18 to 24 hrs by CLSI protocol-based Mueller-Hinton broth dilution method. In kind it is functional. The settings on record: time 18-24 hrs.
For the next data set, the system named is Klebsiella pneumoniae. Kind of data set: Antibacterial activity against Klebsiella pneumoniae ATCC 700603 assessed as reduction in bacterial growth measured after 18 to 24 hrs by CLSI protocol-based Mueller-Hinton broth dilution method. It is filed as functional. The settings on record: time 18-24 hrs.
The test system of a further data set is Acinetobacter baumannii. Kind of data set: Antibacterial activity against multi-drug resistant Acinetobacter baumannii clinical isolate 9840 assessed as reduction in bacterial growth measured after 18 to 24 hrs by CLSI protocol-based Mueller-Hinton broth dilution method. It is filed as functional. The settings on record: time 18-24 hrs.
Data set [3] concerns Staphylococcus aureus. Kind of data set: Antibacterial activity against methicillin resistant Staphylococcus aureus ATCC 33591 assessed as inhibition of bacterial growth incubated for 16 to 20 hrs by broth micro-dilution method. In kind it is functional. Particulars: time 16-20 hrs.
Another data set has as its system Enterococcus faecium. Kind of data set: Antibacterial activity against Vancomycin resistant Enterococcus faecium ATCC 700221 assessed as inhibition of bacterial growth incubated for 16 to 20 hrs by broth micro-dilution method. It is filed as functional. Particulars: time 16-20 hrs.
Data set [4] is described as follows: Hemolytic activity in human RBC. Particulars: red blood cells. In kind it is toxicity, cell-based, Erythrocyte.
For data set [5], the system named is Staphylococcus aureus. The data set is described as follows: Antibacterial activity against Staphylococcus aureus ATCC 29213 assessed as bacterial growth inhibition measured after 18 hrs by CLSI protocol based two-fold serial microdilution method. In kind it is functional.
For data set [6], the system named is Escherichia coli. Kind of data set: Antibacterial activity against Escherichia coli ATCC 25922 assessed as reduction in bacterial growth. In kind it is functional.
Data set [7] has as its system Escherichia coli. The data set is described as follows: Antibacterial activity against Escherichia coli ATCC 25922 assessed as reduction in bacterial growth incubated for 18 to 20 hrs by Mueller Hinton broth dilution method. The settings on record: time 18-20 hrs. It is filed as functional.

In brackets after ≈: the same amount, converted by molar mass. Square brackets hold non-standard residues; d marks the D form. Peptide text beside a SMILES is read from it. 2Nal = N[C@@H](Cc1ccc2ccccc2c1)C(=O)O; Cha = N[C@@H](CC1CCCCC1)C(=O)O

As a reminder, the MIC is the lowest concentration that inhibits growth of the organism. Usually HC50 stands for the concentration giving 50% haemolysis. A higher HC50 goes with weaker haemolysis.

Take `CC[C@H](C)[C@H](NC(=O)[C@H](CCCNC(=N)N)NC(=O)[C@@H](CCCCN)NC(=O)[C@H](CC(C)C)NC(=O)[C@H](CC(C)C)NC(=O)CNC(C)=O)C(=O)N[C@H](CCCCN)C(=O)N[C@H](C(=O)N[C@@H](CC(C)C)C(=O)N[C@@H](CC(C)C)C(=O)NC(Cc1cn(CCCC[C@H](NC(C)=O)C(=O)NCC(=O)N[C@@H](CC(C)C)C(=O)N[C@@H](CC(C)C)C(=O)N[C@@H](CCCCN)C(=O)N[C@H](CCCNC(=N)N)C(=O)N[C@H](C(=O)N[C@H](CCCCN)C(=O)N[C@H](C(=O)N[C@@H](CC(C)C)C(=O)N[C@@H](CC(C)C)C(N)=O)[C@@H](C)O)[C@@H](C)CC)nn1)C(N)=O)[C@@H](C)O` (stereo partly drawn): the MIC in the data set on Staphylococcus aureus [1] was 128 µM (≈ 338 µg/mL); in the data set with Bacillus subtilis, 4 µM (≈ 10.6 µg/mL); with Escherichia coli [2], 16 µM (≈ 42.2 µg/mL); in the data set with Pseudomonas aeruginosa, 16 µM (≈ 42.2 µg/mL); in the data set on Klebsiella pneumoniae it was 16 µM (≈ 42.2 µg/mL); in the data set with Acinetobacter baumannii, 8 µM (≈ 21.1 µg/mL).

As for `CC[C@H](C)[C@H](NC(=O)[C@H](CCCNC(=N)N)NC(=O)[C@@H](CCCCN)NC(=O)[C@H](CC(C)C)NC(=O)[C@H](CC(C)C)NC(=O)CNC(C)=O)C(=O)N[C@H](CCCCN)C(=O)N[C@H](C(=O)N[C@@H](CC(C)C)C(=O)N[C@@H](CC(C)C)C(=O)NC(Cc1cn(CCCC[C@H](NC(=O)[C@H](CC(C)C)NC(=O)[C@H](CC(C)C)NC(=O)[C@@H](NC(=O)[C@@H](CCCCN)NC(=O)[C@@H](NC(=O)[C@@H](CCCNC(=N)N)NC(=O)[C@H](CCCCN)NC(=O)[C@H](CC(C)C)NC(=O)[C@H](CC(C)C)NC(=O)CNC(C)=O)[C@@H](C)CC)[C@@H](C)O)C(N)=O)nn1)C(N)=O)[C@@H](C)O` (stereo partly drawn), the minimal inhibitory concentration (MIC) with Staphylococcus aureus [1] was 64 µM (≈ 169 µg/mL); in the data set with Bacillus subtilis, 64 µM (≈ 169 µg/mL); in the data set on Escherichia coli [2], 16 µM (≈ 42.2 µg/mL); in the data set with Pseudomonas aeruginosa, 32 µM (≈ 84.5 µg/mL); in the data set on Klebsiella pneumoniae, 64 µM (≈ 169 µg/mL); in the data set with Acinetobacter baumannii, 4 µM (≈ 10.6 µg/mL).

For `CC[C@@H](C)[C@@H](NC(=O)[C@H](CCCNC(=N)N)NC(=O)[C@H](CCCCN)NC(=O)[C@H](CC(C)C)NC(=O)[C@H](CC1CCCCC1)NC(=O)CN)C(=O)N[C@@H](CCCCN)C(=O)N[C@H](C(=O)N[C@@H](CC(C)C)C(=O)N[C@@H](CC1CCCCC1)C(N)=O)[C@@H](C)O`, the MIC in the data set with Staphylococcus aureus [3] and with Enterococcus faecium was 56.8 µM (≈ 70.1 µg/mL) throughout.

On to `CC[C@H](C)[C@H](NC(=O)[C@H](Cc1ccccc1)NC(=O)[C@H](CCCCN)NC(=O)[C@H](CC(C)C)NC(=O)[C@H](CC(C)C)NC(=O)CN)C(=O)N[C@@H](CCCCN)C(=O)N[C@H](C(=O)N[C@@H](CC(C)C)C(=O)N[C@@H](CC(C)C)C(N)=O)[C@@H](C)O` (H-GLLKFIKTLL-NH2), for which, in data set [4], the HC50 was 67.3 µM. Besides, the MIC with Staphylococcus aureus [5] and in the data set with Escherichia coli [6] was 1.8 µM (≈ 2.06 µg/mL) each time.

Take `CC[C@H](C)[C@H](NC(=O)[C@H](CCCCN)NC(=O)[C@H](CC(C)C)NC(=O)[C@H](CC(C)C)NC(=O)CN)C(=O)N[C@H](C(=O)N[C@@H](CCCCN)C(=O)N[C@H](C(=O)N[C@@H](CC(C)C)C(=O)N[C@@H](CC(C)C)C(N)=O)[C@@H](C)O)[C@@H](C)CC` (H-GLLKIIKTLL-NH2): in data set [4], the HC50 turned out to be 26.1 µM. Besides, the MIC in the data set with Staphylococcus aureus [5] and in the data set with Escherichia coli [6] was 1.8 µM (≈ 2 µg/mL) in each case.

Take `CC(C)C[C@H](NC(=O)CN)C(=O)N[C@@H](CC(C)C)C(=O)N[C@@H](CCCCN)C(=O)N[C@@H](CCCCN)C(=O)N[C@@H](Cc1ccc2ccccc2c1)C(=O)N[C@@H](CCCCN)C(=O)N[C@@H](CCCCN)C(=O)N[C@@H](CC(C)C)C(=O)N[C@@H](CC1CCCCC1)C(N)=O` (H-GLLKK[2Nal]KKL[Cha]-NH2): the MIC with Staphylococcus aureus [3] amounted to 9.5 µM (≈ 12.1 µg/mL); in the data set with Enterococcus faecium it was 3.2 µM (≈ 4.09 µg/mL); in the data set with Escherichia coli [7], 16 µM (≈ 20.4 µg/mL).

`CC[C@H](C)[C@H](NC(=O)[C@H](CC(C)C)NC(=O)[C@H](CCCCN)NC(=O)[C@H](CC(C)C)NC(=O)[C@H](CC(C)C)NC(=O)CN)C(=O)N[C@@H](CCCCN)C(=O)N[C@H](C(=O)N[C@@H](CC(C)C)C(=O)N[C@@H](CC(C)C)C(N)=O)[C@@H](C)O` (H-GLLKLIKTLL-NH2): in data set [4], the HC50 turned out to be 11.7 µM. In addition, the MIC with Staphylococcus aureus [5] and with Escherichia coli [6] was 1.8 µM (≈ 2 µg/mL) in each case.

Turning to `CC[C@H](C)[C@H](NC(=O)[C@H](CC(N)=O)NC(=O)[C@H](CCCCN)NC(=O)[C@H](CC(C)C)NC(=O)[C@H](CC(C)C)NC(=O)CN)C(=O)N[C@@H](CCCCN)C(=O)N[C@H](C(=O)N[C@@H](CC(C)C)C(=O)N[C@@H](CC(C)C)C(N)=O)[C@@H](C)O` (H-GLLKNIKTLL-NH2), the MIC with Staphylococcus aureus [5] and in the data set with Escherichia coli [6] was 1.7 µM (≈ 1.89 µg/mL) each time.
